{"source": "ChEMBL document CHEMBL5149996", "about": "“Structure-Based Optimization and Discovery of M3258, a Specific Inhibitor of the Immunoproteasome Subunit LMP7 (β5i)” (J Med Chem, 2021)", "key": {"[1]": {"assay": "Volume of distribution at steady state in iv dosed mouse", "assay_type": "ADME, organism-based", "conditions": "in vivo, read-out: Vdss"}, "[2]": {"target": "T1, Proteasome subunit beta type-6 (Homo sapiens, UniProt P28072)", "T1 sequence (P28072 whole entry)": "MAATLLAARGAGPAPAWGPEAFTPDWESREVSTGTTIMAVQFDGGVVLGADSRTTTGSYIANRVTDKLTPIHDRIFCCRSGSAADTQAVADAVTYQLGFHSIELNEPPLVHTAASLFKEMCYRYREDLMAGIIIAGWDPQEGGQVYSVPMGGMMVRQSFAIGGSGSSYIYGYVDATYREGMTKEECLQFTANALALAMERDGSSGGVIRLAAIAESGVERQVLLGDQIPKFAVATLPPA", "assay": "Inhibition of human 20S […] beta1 subunit using Ac-nLPnLD-AMC as substrate preincubated for 2 hrs followed by substrate addition and measured after 1 hr by fluorescence intensity assay"}, "[3]": {"assay": "Distribution coefficient, log D of the compound", "assay_type": "physicochemical", "conditions": "octanol/water"}, "[4]": {"system": "20S immunoproteasome beta-5i subunit", "assay": "Selectivity ratio of IC50 for cytotoxicity against Wistar Han rat hepatocytes to IC50 for inhibition of 20S immunoproteasome beta-5i subunit in human PBMC", "assay_type": "toxicity", "conditions": "read-out: Ratio IC50"}, "[5]": {"system": "20S immunoproteasome beta-5i subunit", "assay": "Selectivity ratio of IC50 for cytotoxicity against human HepG2 cells to IC50 for inhibition of 20S immunoproteasome beta-5i subunit in human PBMC", "assay_type": "toxicity, cell-based", "conditions": "read-out: Ratio IC50"}, "[6]": {"target": "T2, Proteasome subunit beta type-10 (Homo sapiens, UniProt P40306)", "T2 sequence (P40306 whole entry)": "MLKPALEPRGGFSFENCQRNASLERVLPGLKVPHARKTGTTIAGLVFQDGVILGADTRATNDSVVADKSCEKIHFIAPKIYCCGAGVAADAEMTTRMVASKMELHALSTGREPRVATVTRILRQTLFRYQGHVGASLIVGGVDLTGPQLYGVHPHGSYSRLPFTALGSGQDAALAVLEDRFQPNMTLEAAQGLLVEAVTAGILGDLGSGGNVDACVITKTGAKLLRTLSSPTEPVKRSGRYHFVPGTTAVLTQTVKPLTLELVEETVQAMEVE", "assay": "Inhibition of human 20S immunoproteasome beta-2i subunit using Ac-RLR-AMC as substrate preincubated for 2 hrs followed by substrate addition and measured after 1 hr by fluorescence intensity assay"}, "Homo sapiens": {"organism": "Homo sapiens", "assay": "Selectivity ratio of IC50 for inhibition of human 20S proteasome beta5 subunit to IC50 for inhibition of human 20S immunoproteasome beta-5i subunit"}, "[7]": {"assay": "Kinetic solubility of the compound", "assay_type": "physicochemical", "conditions": "read-out: Kinetic_solubility"}}, "data": [{"smiles": "O=C(N[C@@H](Cc1coc2ccccc12)B(O)O)[C@@H]1C[C@H]2CC[C@@H]1O2", "values": [{"measurement": "Vd", "setting": "[1]", "value": 0.47, "unit": "L/kg"}, {"measurement": "IC50", "setting": "[2]", "value": "> 30", "unit": "µM"}, {"measurement": "logD", "setting": "[3]", "value": 1.1}, {"measurement": "selectivity ratio", "setting": "[4]", "value": 10000}, {"measurement": "selectivity ratio", "setting": "[5]", "value": 10000}, {"measurement": "IC50", "setting": "[6]", "value": "> 30", "unit": "µM"}, {"measurement": "Ratio IC50", "setting": "Homo sapiens", "value": 684}, {"measurement": "solubility kinetic", "setting": "[7]", "value": "> 200", "unit": "µM"}]}]}
